From patent US12653796B2, “Compounds for use (in particular RIPA-56) in the prevention and/or treatment of non-alcoholic fatty liver disease” (SORBONNE UNIVERSITE, priority 2019, dated 2026)
Residues, ends and D or L forms follow the SMILES beside them. *: point of attachment. Cbz = O=C(OCc1ccccc1)*; CH2F = FC*

Experiments:
RIPK1 = test: ELISA of RIPK1 released in supernatant of L929 cells exposed to TNFα; type: cell-based, murine; settings: 20 μM, 2 h, then TNFα (25 ng/mL) 6 h
Method: FIG. 12. […] Results are shown as mean±SEM of six replicates.
L929 cells (LGC Standards, Molsheim, France), were cultured in Dulbecco's modified Eagle's medium (DMEM) (ThermoFisher, Massachusetts, USA) supplemented with 10% fetal bovine serum (Eurobio, Courtaboeuf, France), penicillin (100 IU/ml), streptomycin (0.1 mg/ml), and L-glutamine (0.03%) (ThermoFisher). […] AML-12 (alpha mouse liver-12) hepatocytes (LGC Standards) were cultured in DMEM/F12 Medium (ThermoFisher) supplemented with 10% fetal bovine serum (Eurobio), 10 μg/ml insulin, 5.5 μg/ml transferrin, 5 ng/ml selenium and 40 ng/ml dexamethasone (Sigma, Missouri, USA). AML-12 hepatocytes were stimulated with insulin (#I0516, 10 nM; Sigma) for 15 minutes.
Protein concentrations of human RIPK1 (SEE640Hu; Could-Clone Corp., Texas, USA), human MLKL (SER645Hu; Could-Clone Corp.) and murine RIPK1 (CSB-EL019735MO; Cusabio, Texas, USA) were determined by an ELISA kit according to the manufacturer's instructions.

[1] = test system: primary human hepatocytes; test: Fat depletion in primary human hepatocytes with free fatty acid-induced steatosis; type: cell-based; settings: 20 μM, 24 h
Method: FIG. 7. RIPA-56 treatment induces fat depletion in primary human hepatocytes. Primary human hepatocytes were isolated from steatotic human livers of patients with NAFLD (n=5) (A-C) or from non-steatotic human livers and incubated with free fatty acids to induce steatosis or without (W/O) (n=5) (D-G), and treated with RIPA-56 (20 μM) or DMSO (vehicle) for 24 h. (A, D) Representative Oil Red-O and DAPI images; (B, E) Quantification of Oil Red-O staining normalized for the number of DAPI-stained nuclei; (C, F) Quantification of intracellular triglycerides normalized to protein content; (G) mRNA levels of CPT1A, MTTP and APOB100 were assessed by RT-qPCR, and shown relative to DMSO-treated hepatocytes. Results are shown as mean±SEM; n.s., not significant; *p<0.05; **p<0.01; scale bars, 100 μm. These findings are representative of five independent cell preparations.
FIG. 9. MLKL controls intrahepatic triglyceride content in hepatocytes. (A-D) Primary human hepatocytes were isolated from non-steatotic human livers and incubated with free fatty acids to induce steatosis, or without (W/O), and treated with necrosulfonamide (NSA) (20 μM) or DMSO (vehicle) for 24 h. (A) Representative Oil Red-O and DAPI images; (B) Quantification of Oil Red-O staining normalized for the number of DAPI-stained nuclei; (C) Quantification of intracellular triglycerides normalized to protein content. (D) mRNA levels of CPT1A, MTTP and APOB100 were assessed by RT-qPCR and shown relative to DMSO-treated hepatocytes; (E-H) AML-12 cells were knocked-out (KO) for MLKL and compared with control (CTL) cells, which underwent a similar CRISPR-Cas9 selection as KO cells; (E) Whole-cell lysates were extracted from CTL and MLKL-KO AML-12 cells and analyzed by Western blot using antibodies against MLKL, Tubulin and GAPDH; (F) Representative Oil Red-O and DAPI images; (G) Oil Red-O staining and (H) triglycerides quantification in fat-loaded cell lines. Results are shown as mean±SEM; n.s., not significant; *p<0.05; **p<0.01; ***p<0.001; scale bars, 100 μm. These experiments are representative of five independent cell preparations.
The liver fragment was initially perfused with a prewarmed (37° C.) calcium-free buffer supplemented with 5 mmol/L ethylene glycol tetra-acetic acid (Sigma) followed by perfusion with a prewarmed (37° C.) buffer containing 6 mmol/L calcium (CaCl2) and collagenase 0.05% ([…]) (Sigma). The liver fragment was then gently shaken to disperse liver cells in Hepatocyte Wash Medium (Life Technologies, Villebon-sur-Yvette, France). The resulting cell suspension was filtered through a gauze-lined funnel. Cells were then centrifuged at low speed. The supernatant, containing damaged or dead hepatocytes, non-parenchymal cells and debris were removed and pelleted hepatocytes were re-suspended in Hepatocyte Wash Medium. The count of viable cells was determined using trypan blue exclusion. Freshly isolated normal (steatosis <5%) or steatotic (>10%) hepatocytes were resuspended in Williams medium E (Life technologies) containing 10% fetal calf serum (Eurobio), penicillin (200 U/mL)-streptomycin (200 μg/mL), Fungizone (2.5 μg/mL) and insulin (0.1 U/mL) (Life Technologies). The cells were seeded in 12-, 24- and 96-well plates pre-coated with type I collagen at a density of 0.78×10^6, 0.4×10^6 and 0.5×10^5 viable cells/well, respectively, and incubated overnight at 37° C. in a 5% CO2 atmosphere. The medium was replaced with fresh complete hepatocyte medium supplemented with 1 μmol/L hydrocortisone hemisuccinate (Laboratoires SERB, Paris, France) and hepatocytes were maintained in this medium. To induce steatosis in normal hepatocytes, PHH were incubated with free fatty acid (FFA) mixtures of oleic acid and palmitic acid in a molar ratio 2:1 (500:250 μmol/L), respectively, and with 1% fatty-acid-free BSA for 48 hours.
Total RNA was purified from liver tissue using TRIzol reagent (ThermoFisher) and a RNeasy Mini kit (Qiagen, Courtaboeuf, France). […]

necrostatin-1 [Nec-1]
RIPK1 in the supernatant (RIPK1): undetectable

COc1nccnc1NS(=O)(=O)c1ccc(NC(=O)/C=C/c2ccc([N+](=O)[O-])s2)cc1 [necrosulfonamide, reference compound]
intracellular lipid droplets (Oil Red-O) ([1]; FFA-induced steatosis): significantly decreased
intracellular triglyceride content ([1]; FFA-induced steatosis): significantly decreased
CPT1A expression (mRNA) ([1]; RT-qPCR): upregulated

COC(=O)C[C@H](NC(=O)[C@H](C)NC(=O)[C@@H](NC(=O)OCc1ccccc1)C(C)C)C(=O)CF [Zvad] (Cbz-Val-Ala-Asp(OMe)-CH2F)
RIPK1 in the supernatant (RIPK1): released
